Measured values taken from patent US6160166A, “Phosphonated agents and their antiangiogenic and antitumorigenic use” (priority 1999, dated 2000).

Legend:
[1] = cited from earlier work
[2] = system: chick chorioallantoic membrane (CAM); test: Chick egg chorioallantoic membrane (CAM) assay, 6-day, growing vessels: inhibition of angiogenesis; assay type: in vivo; conditions: for antiangiogenic activity relative to suramin: CAM assay / inhibition of angiogenesis, versus suramin; for inhibition of angiogenesis in the 6-day CAM, in words: rapidly growing vessels; for inhibition in vivo at 70 nmol: Gallus gallus, Tables 1 and 2, dose not given, Em = number of embryos, read-out: % Ih (Inhibition)
Description: The purpose of this experiment was to test the ability of the phosphonic acid agents described above to inhibit angiogenesis. […]
(§1) Comparison of the inhibition of angiogenesis by 70 nmol of
(§2) suramin or a equimolar amount of a phosphonic acid agents in the
(§3) 6-day and 11-day chick egg chorioallantoic (CAM) assay.

MMP-2 = MMP-2 activity by zymography, human microvascular endothelial cells; assay type: cell-based; conditions: for inhibition of MMP-2 activity: human microvascular endothelial cells, zymography; for inhibition of bFGF-induced increase in MMP-2 activity: with bFGF
Description: Matrix metalloproteinases are an important group of zinc enzymes responsible for the degradation of the extracellular matrix components, such as collagen and proteoglycans. Currently, 16 family members have been identified. MMP family member differ from each other structurally by the presence or absence of domains that contribute to activities such as substrate specificity, inhibitor binding, matrix binding and cell surface localization (Powell and Matrisian, 1996). To determine if the phosphonic acid agents were effective inhibitors of the MMP's of endothelial cells, cells were incubated in the presence of the different agents for 48 hours. Tissue samples were taken and subjected to zymography. Tissue samples were placed in glass homogenizers in a three fold weight/volume of lysis buffer consisting of 50 mM Tris-HCL, pH=7.4, with 200 mM sodium chloride and 0.1% Triton X-100. The samples were homogenized and centrifuged at 1500 g for 20 min. The supernatant was immediately analyzed by zymography. Protein content of each sample was determined by a modified Lowry method.
MMP enzyme activity was detected using polyacrylamide gel eltrophoresis zymography. SDS-polyacrylamide gel electrophoresis (PAGE) was performed using 8% acrylamide gels containing 0.1% gelatin. The volume of test samples loaded was 15 μl. Electrophoresis was run at 4° C. at a constant voltage (100 volts). After electrophoresis, gels were incubated in Triton X-100 (2.5%) for 30 minutes to eliminate SDS, prior to being incubated overnight in 50 mM Tris HCL, pH7.5, containing 10 mM CaCl2 at 37° C. The gels were stained in 0.25% (W/v) Coomassie Brilliant Blue and destained in methanol:acetic acid:water (50:40:10). The clear zones in these gels indicates the presence of proteins with gelatinolytic activity. This method allows for identification of pro-metalloproteinases.Migration position of proteins and with standard molecular weight and supernatant from HT 1080 cells that express MMP-2 and MMP-9 were used as controls.

[3] = system: human dermal microvascular and porcine pulmonary artery endothelial cells; test: bFGF-stimulated and non-stimulated endothelial cell growth (total protein, total DNA); assay type: cell-based; conditions: 25 μM
Description: Suramin is a highly charged molecule with six sulfonate groups that are ionized at physiologic pH.

[4] = system: different cancer cell lines; test: MTT cell proliferation, different cancer cell lines; assay type: cell-based, human; conditions: cancer cell lines in vitro
[5] = system: chick chorioallantoic membrane (CAM); test: Chick egg chorioallantoic membrane (CAM) assay, 11-day, established vessels; assay type: in vivo; conditions: for 11-day CAM % Inhibition: 70 nmol or equimolar amount; for inhibitory activity in the 11-day CAM, in words: established vessels
Description: According to Ausprunk et al. (1974), capillary angiogenesis in the CAM is completed by day 11. Measurements of intercapillary distances are also consistent with the cessation of capillary growth after day 10. […] The implants were prepared as previously described by Gagliardi et al. (1992), implanted on day 11 and read on day 13.
as §1, §2, §3

[6] = system: human dermal Microvascular endothelial cells; test: Inhibition of bFGF-stimulated growth of human microvascular endothelial cells; assay type: cell-based; conditions: for IC50: Homo sapiens, Endothelial cell, bFGF-stimulated, estimated from dose response curve
Description: Inhibition of cell growth was evaluated by measuring total protein and total DNA and the IC50 was estimated for each dose response curve.

Compound	antiangiogenic activity relative to suramin [2]	effect on bFGF stimulation of endothelial cell growth [3]	effect on total protein content versus unstimulated control [3]	inhibition in vivo at 70 nmol [2]	further results
CN1CCCC1=O [N-methyl-2-pyrrolidone]					toxicity in Ames type assays and chronic exposure studies ([1]; Wells et al.): have not revealed any significant toxicity; irritation or sensitization potential ([1]; animal and human experiments): very little irritation or sensitization potential
O=C(Nc1cccc(C(=O)Nc2cccc(C(=O)Nc3cccc(P(=O)(O)O)c3)c2)c1)Nc1cccc(C(=O)Nc2cccc(C(=O)Nc3cccc(P(=O)(O)O)c3)c2)c1 [NF 050]	2 to 4 times	inhibited the stimulation of endothelial cell growth by bFGF	significantly reduced total protein content far below the unstimulated control endothelial cells		inhibition of MMP-2 activity (MMP-2): potent inhibitors of MMP-2 activity; inhibition of bFGF-induced increase in MMP-2 activity (MMP-2): inhibited the increase in MMP-2 activity induced by bFGF
O=C(Nc1cccc(C(=O)Nc2ccc(P(=O)(O)O)cc2)c1)Nc1cccc(C(=O)Nc2ccc(P(=O)(O)O)cc2)c1 [NF 067]	2 to 4 times	inhibited the stimulation of endothelial cell growth by bFGF	significantly reduced total protein content far below the unstimulated control endothelial cells	62%	inhibition of angiogenesis in the 6-day CAM, in words [2]: very potent inhibitors of angiogenesis; ID50, dose that produces 50% inhibition of angiogenesis ([2]; CAM assay): 32 nmol; antiproliferative activity, in words [4]: very low antiproliferative activity; 11-day CAM % Inhibition [5]: 0%; inhibitory activity in the 11-day CAM, in words [5]: no significant inhibitory activity; IC50 [6]: 19.4 µM; potency relative to suramin, inhibition of endothelial cell growth ([6]; versus suramin, in vitro): 20 times
O=C(Nc1cccc(C(=O)Nc2cccc(P(=O)(O)O)c2)c1)Nc1cccc(C(=O)Nc2cccc(P(=O)(O)O)c2)c1 [NF 068]				0%	antiangiogenic activity relative to suramin or between groups, in words ([2]; CAM assay): does not show any antiangiogenic activity
O=C(Nc1ccc(C(=O)Nc2cccc(P(=O)(O)O)c2)cc1)Nc1ccc(C(=O)Nc2cccc(P(=O)(O)O)c2)cc1 [NF 069]	4-8 times	inhibited the stimulation of endothelial cell growth by bFGF	significantly reduced total protein content far below the unstimulated control endothelial cells	66%	inhibition of angiogenesis in the 6-day CAM, in words [2]: very potent inhibitors of angiogenesis; ID50, dose that produces 50% inhibition of angiogenesis ([2]; CAM assay): 9 nmol; 11-day CAM % Inhibition [5]: 0%; inhibitory activity in the 11-day CAM, in words [5]: no significant inhibitory activity; IC50 [6]: 75 µM
O=C(Nc1cccc(P(=O)(O)O)c1)Nc1cccc(P(=O)(O)O)c1 [NF 158]				0%	
O=C(Nc1ccc(P(=O)(O)O)cc1)Nc1ccc(P(=O)(O)O)cc1 [NF 161]	2 to 4 times	inhibited the stimulation of endothelial cell growth by bFGF	significantly reduced total protein content far below the unstimulated control endothelial cells	53%	
O=C(Nc1ccc(P(=O)(O)O)cc1)c1ccc(NC(=S)Nc2ccc(C(=O)Nc3ccc(P(=O)(O)O)cc3)cc2)cc1 [NF 162]					inhibition of MMP-2 activity (MMP-2): potent inhibitors of MMP-2 activity; inhibition of bFGF-induced increase in MMP-2 activity (MMP-2): inhibited the increase in MMP-2 activity induced by bFGF
O=C(Nc1ccc(P(=O)(O)O)cc1)c1cc(NC(=O)c2cccc([N+](=O)[O-])c2)cc(C(=O)Nc2ccc(P(=O)(O)O)cc2)c1 [NF 167]	2 to 4 times	inhibited the stimulation of endothelial cell growth by bFGF	significantly reduced total protein content far below the unstimulated control endothelial cells		
O=C(Nc1ccc(OC(=O)P(=O)(O)O)cc1)Nc1ccc(OC(=O)P(=O)(O)O)cc1 [NF 392]				6%	
O=C(Nc1cccc(OC(=O)P(=O)(O)O)c1)Nc1cccc(OC(=O)P(=O)(O)O)c1 [NF 426]				39%	
O=C(Nc1ccc(NC(=O)P(=O)(O)O)cc1)Nc1ccc(NC(=O)P(=O)(O)O)cc1 [NF 428]	2 to 4 times	inhibited the stimulation of endothelial cell growth by bFGF	significantly reduced total protein content far below the unstimulated control endothelial cells		
O=C(Nc1ccccc1OC(=O)P(=O)(O)O)Nc1ccccc1OC(=O)P(=O)(O)O [NF 473]				21%	
Cc1cc(NC(=O)Nc2ccc(OC(=O)P(=O)(O)O)c(C)c2)ccc1OC(=O)P(=O)(O)O [NF 474]				12%	
O=C(Nc1ccc(C(=O)Nc2ccc(P(=O)(O)O)cc2)cc1)Nc1ccc(C(=O)Nc2ccc(P(=O)(O)O)cc2)cc1 [NF 681]	4-8 times	inhibited the stimulation of endothelial cell growth by bFGF	significantly reduced total protein content far below the unstimulated control endothelial cells	100%	inhibition of angiogenesis in the 6-day CAM, in words [2]: very potent inhibitors of angiogenesis; ID50, dose that produces 50% inhibition of angiogenesis ([2]; CAM assay): 2 nmol; inhibition of MMP-2 activity (MMP-2): potent inhibitors of MMP-2 activity; inhibition of bFGF-induced increase in MMP-2 activity (MMP-2): inhibited the increase in MMP-2 activity induced by bFGF; 11-day CAM % Inhibition [5]: 0%; inhibitory activity in the 11-day CAM, in words [5]: no significant inhibitory activity; IC50 [6]: 1.5 µM
